{"source": "patent US10716778B2", "about": "“Use of compounds that are able to increase the serum IGF-1 level for the preparation of a therapeutical composition for treatment of various disease states associated with a reduced IGF-1 serum level in humans and animals” (VEIJLEN N.V., priority 2003, dated 2020)", "key": {"IGF-1 [1]": {"tested_on": "IGF-1", "experiment": "Plasma IGF-1 level in eight CFS patients treated with the composition (Example 1)", "assay_type": "in vivo, human", "procedure": "(§1) Eight patients suffering from severe chronic fatigue syndrome (CFS) were studied over a 5- to 7-month period. In this period, they were treated with a therapeutical composition of the disclosure in the form of a food supplement, which comprised IAA as the active ingredient. All subjects were unable to do their job or to perform very light physical exercise.\n(§2) Before entering the study, the subjects underwent a careful medical examination to exclude any other disease. Blood was assayed for insulin-like growth factor 1 (IGF-1) and its major binding protein IGF-BP3 was sampled at 0, 1, 3 and 5 to 7 months of treatment because the total amount of IGF-1 in serum minus the amount of IGF-BP3 is the amount of free IGF-1. Free IGF-1 is the active serum fraction. Also at 0, 1, 3 and 5 to 7 months, job participation and physical activities were registered and calculated as percentage of normal, before disease pattern.\n(§3) Eight women varying in age from 25 to 53 years having severe complaints of fatigue that made it impossible to function normally, both at work and in free time. All reported an excessive need for sleep, which was never refreshing even though it was prolonged (more than 12 hours). After excluding all other diseases and infections, they were all diagnosed for CFS.\n(§4) Blood samples of 20 ml were taken and liver and kidney functions, the red and white hemogram, IGF-1 and IGF-BP3 determined. The patients took 1000 mg/day (corresponding to 40 mg IAA and 960 mg salt and WPC 70) of the composition of the disclosure for 4 weeks. After this, the dosage was reduced by 250 mg (corresponding to 10 mg IAA) every 2 weeks to 750 mg/day, 500 mg/day 250 mg/day, respectively. […]\n(§5) At the start of the study and at each check-up point, the work participation and physical activity pattern were scored on a scale from 1 to 10 and plotted as the percentage of the patient's normal activities. […] IGF-BP3 was determined by means of an immunoassay (DSL-5600 ACTIVE™, DSL Deutschland GmbH, Germany) having an intra-assay variance of 4.4% and an inter-assay variance of 6.6%. […]"}, "IGF-BP3": {"tested_on": "IGF-BP3", "experiment": "Plasma IGF-BP3 level in eight CFS patients treated with the composition (Example 1)", "assay_type": "in vivo, human", "procedure": "as §1, §2, §3, §4, §5"}, "IGF-1 [2]": {"tested_on": "IGF-1", "experiment": "IGF-1 levels in poor-growing piglets treated with IAA (Example 7)", "assay_type": "in vivo, piglets (Dutch Landrace)", "text": "The trial was done in a well-managed farm with 1000 sows of the Dutch Landrace. Although the farm is well run, the technical performance is not optimal. There were latent problems with mortality and with growth rates of the piglets. There are too many poor-growing piglets, without fully understanding the technical or veterinary reason. There is no clear pathology to be seen on the farm.\nThe farmer selected the poor-growing piglets for this weaning period. The piglets were weaned for two days at the start of the trial. There were three groups: the normal well-growing piglets, which served as a control group; the B group with 78 poor growers that are treated with 12.5 mg/kg/LW (Life Weight) IAA; and the X group with 52 poor growers that are not treated.\nBlood samples for IGF-1 measuring were taken from each group at the beginning of the trial and at the end of the trial. Two pens (13 piglets) of the B and X groups were weighed at the beginning and at the end of the trial. The active ingredient IAA was mixed in dextrose. […] The B group received the treatment five days after the first IGF-1 measuring."}, "growing laying hens": {"tested_on": "growing laying hens", "experiment": "Weight and weight gain of growing laying hens treated with IAA (Example 8)", "assay_type": "in vivo", "design": "unit not given here", "procedure": "Growing laying hens of 10 weeks old were selected in the flock to create four groups of ten hens: • Group GB: Ten normally growing hens, not treated • Group GNA: Ten normally growing hens, treated with 10 mg/kg/LW IAA (LW=live weight) • Group SB: Ten poorly growing hens, not treated • Group SNA: 10 poorly growing hens, treated with 10 mg/kg/LW IAA.\nIn this example, not only the poor-growing birds were treated, but also normally growing animals. The birds receive daily forced oral treatment with a capsule that contains IAA. The different groups are weighed every week. Treatment is continued at least until the hens start laying, to see if the period of onset of laying is influenced by the treatment."}}, "note": "Values joined by “and” are separate entries in the source; they are usually repeats but may differ in a detail not shown here. Equal values may be shown once.", "data": [{"substance": "indole acetic acid [IAA]", "values": [{"measurement": "plasma IGF-1 level (mean±SD)", "setting": "IGF-1 [1]; after 1 month", "result": "29.5 ± 8.2", "unit": "nmol/L"}, {"measurement": "plasma IGF-1 level (mean±SD)", "setting": "IGF-1 [1]; after 5 months of treatment", "result": "35 ± 10", "unit": "nmol/L"}, {"measurement": "plasma IGF-1 level (mean±SD)", "setting": "IGF-1 [1]; before treatment (baseline)", "result": "18 ± 5", "unit": "nmol/L"}, {"measurement": "IGF-BP3 level (mean±SD)", "setting": "IGF-BP3; after 1 month of treatment", "result": "18.1 ± 3.5", "unit": "nmol/L"}, {"measurement": "IGF-BP3 level (mean±SD)", "setting": "IGF-BP3; after 5 months of treatment", "result": "13.4 ± 10.6", "unit": "nmol/L"}, {"measurement": "IGF-BP3 level (mean±SD)", "setting": "IGF-BP3; before treatment (baseline)", "result": "25 ± 11.5", "unit": "nmol/L"}, {"measurement": "IGF-1 level, 2nd measurement", "setting": "IGF-1 [2]; treated group B, individual piglets, after 21 days of 12.5 mg/kg/LW IAA in feed, acetic acid, 12.5 mg/kg", "result": "25.2 nmol/L and 28.9 nmol/L and 25.5 nmol/L and 29.9 nmol/L and 16.9 nmol/L"}, {"measurement": "IGF-1 level, 1st measurement", "setting": "IGF-1 [2]; treated group B, individual piglets, beginning of the trial, before treatment, acetic acid", "result": "3 nmol/L and 2.7 nmol/L and 6.1 nmol/L and 5.3 nmol/L and 5.7 nmol/L"}, {"measurement": "IGF-1 level, 2nd measurement, average", "setting": "IGF-1 [2]; treated group B, average of 5 piglets, after 21 days of treatment, control 23.6, non-treated X 17.2, acetic acid", "result": "25.3 nmol/L and 25.28 nmol/L"}, {"measurement": "IGF-1 level, 1st measurement, average", "setting": "IGF-1 [2]; treated group B, average of 5 piglets, before treatment", "result": 4.56, "unit": "nmol/L"}, {"measurement": "effect on IGF-1 levels in poor-growing piglets", "setting": "IGF-1 [2]; treatment for 14-21 days with 12.5 mg/kg/LW IAA", "result": "effectively restores IGF-1 levels"}, {"measurement": "weight", "setting": "growing laying hens; group GNA (normally growing hens, 10 mg/kg/LW IAA daily oral capsule), weekly weighing 1", "result": 740}, {"measurement": "total weight gain", "setting": "growing laying hens; group GNA, untreated GB 407.5", "result": 482}, {"measurement": "weight", "setting": "growing laying hens; group GNA, weekly weighing 2", "result": 883}, {"measurement": "weight", "setting": "growing laying hens; group GNA, weekly weighing 3", "result": 996}, {"measurement": "weight", "setting": "growing laying hens; group GNA, weekly weighing 4", "result": 1095}, {"measurement": "weight", "setting": "growing laying hens; group GNA, weekly weighing 5", "result": 1222}, {"measurement": "weight gain", "setting": "growing laying hens; group GNA, weighing 2 vs 1", "result": 143}, {"measurement": "weight gain", "setting": "growing laying hens; group GNA, weighing 3 vs 2", "result": 113}, {"measurement": "weight gain", "setting": "growing laying hens; group GNA, weighing 4 vs 3", "result": 99}, {"measurement": "weight gain", "setting": "growing laying hens; group GNA, weighing 5 vs 4", "result": 127}, {"measurement": "weight", "setting": "growing laying hens; group SNA (poorly growing hens, 10 mg/kg/LW IAA daily oral capsule), weekly weighing 1", "result": 489.5}, {"measurement": "total weight gain", "setting": "growing laying hens; group SNA, untreated SB 408.5", "result": 505.5}, {"measurement": "weight", "setting": "growing laying hens; group SNA, weekly weighing 2", "result": 598}, {"measurement": "weight", "setting": "growing laying hens; group SNA, weekly weighing 3", "result": 718}, {"measurement": "weight", "setting": "growing laying hens; group SNA, weekly weighing 4", "result": 885}, {"measurement": "weight", "setting": "growing laying hens; group SNA, weekly weighing 5", "result": 995}, {"measurement": "weight gain", "setting": "growing laying hens; group SNA, weighing 2 vs 1", "result": 108.5}, {"measurement": "weight gain", "setting": "growing laying hens; group SNA, weighing 3 vs 2", "result": 120}, {"measurement": "weight gain", "setting": "growing laying hens; group SNA, weighing 4 vs 3", "result": 167}, {"measurement": "weight gain", "setting": "growing laying hens; group SNA, weighing 5 vs 4", "result": 110}]}]}
